Test results from patent publication EP4640674A1, “CRYSTAL FORMS OF ETHOXIMOD, PREPARATION METHOD THEREFOR AND USE THEREOF” (Jiankuan (Suzhou) Biotechnology Co., Ltd, priority 2022, dated 2024).
Values joined by “and” are separate entries in the source; they are usually repeats but may differ in a detail not shown here. Equal entries are not always repeated.

Legend:
Assay type in all cases: physicochemical
[1] = Angle of repose test (flowability); conditions: hydrochloride
Experimental: Powder properties of active pharmaceutical ingredients affect the flowability of the active pharmaceutical ingredients. The crystal form A and the crystal form B of ethoximod was subjected to angle of repose and Hausner ratio tests to compare the flowability of the crystal form A and the crystal form B of ethoximod. […] In this experiment, angles of repose of active pharmaceutical ingredients of the two crystal forms were measured through an injection method in combination with a residual cone method, and the flowability of the active pharmaceutical ingredients of the two crystal forms was analyzed. Specific operations are as follows: powders were injected into a center of a disc with a limited diameter, the injection was stopped until materials on an oblique side of a powder accumulation layer automatically flew out along an edge of the disc, a height (H) of a cone was measured, and the angle of repose was calculated according to the diameter (D = 2r) of the disc with tanQ = H/r.

[2] = Microscopic morphology and particle size; conditions: optical microscope, 40× objective lens; hydrochloride
Excerpt: Samples of the crystal form A and the crystal form B of ethoximod were subjected to microscopic morphological researches. The morphology and particle sizes of the crystal form A and the crystal form B were observed under a 40× objective lens of an optical microscope. The crystal form A is irregular and plate-shaped with a raw material particle size of below 35 µm and a long/short diameter ratio of 1 to 2. The crystal form B aggregates and becomes spherical with a raw material particle size of below 20 µm.

[3] = Solid-state stability on storage (crystal form by XRPD, purity); conditions: for Crystal Form after storage / main purity after storage / maximum single impurity after storage: 30 days exposed
Experimental: Samples were taken before and after storage, and crystal forms were measured through XRPD. […] Table 3 Comparison of solid-state stability of crystal form A and crystal form B

[4] = Equilibrium solubility in organic solvents at room temperature (HPLC; solid by XRPD); conditions: equilibrium for 24 h; for solubility at 24 h: organic solvent or mixture, thermodynamic from solid
Experimental: The crystal form A and the crystal form B of ethoximod were prepared into solutions at room temperature with ethanol, acetone and ethyl acetate. After equilibrium for 24 h, filtration was performed to obtain saturated solutions, and contents of the samples in the saturated solutions were measured through high-performance liquid chromatography (HPLC) (diluting the filtrates as needed). Crystal forms of the solids before and after the experiment were characterized through XRPD to check whether phase transition had occurred.

[5] = Dynamic vapor sorption (hygroscopicity)
Excerpt: In the examples of the present application, the instrument used for the X-ray powder diffraction test is the D2 Phaser produced by Bruker. The instrument used for the differential scanning calorimetry test is the differential scanning calorimeter DSC 250 produced by TA Instruments. The instrument used for the thermogravimetric analysis is the thermogravimetric analyzer TGA 55 produced by TA Instruments. The instrument used for the FT-IR test is the Fourier infrared spectrometer ID1-summit produced by Thermo. The instrument used for the dynamic vapor sorption test is the DVS Intrinsic produced by Surface Measurement Systems (SMS). The instrument used for the microscopy is the microscope NJF-120A produced by Suzhou Nanguang Electronic Technology Co., Ltd.
Samples of the crystal form A and the crystal form B of ethoximod were taken for a dynamic vapor sorption test.

[6] = Adhesion test in ziplock bag; conditions: ziplock bag flipped at 5 rpm, 10 min in each direction; hydrochloride
Experimental: Each of the crystal form A and the crystal form B of ethoximod was taken and put into a ziplock bag with a fixed size. A seal was sealed, and the ziplock bag was flipped at a rotation speed of 5 rpm for 10 min. A direction was changed, and the ziplock bag continued to be flipped at a fixed rotation speed for 10 min. Raw materials were poured out from the bag, a mass of the remaining raw materials was weighed accurately, and an adhesion rate was calculated.

[7] = Dynamic solubility at 37 °C (HPLC; residual solid by XRPD); conditions: for solubility at 1 h / solubility at 2 h / solubility at 4 h / solubility at 24 h: thermodynamic from solid
Experimental: Samples of the crystal form A and the crystal form B of ethoximod were taken and prepared into saturated solutions at 37 °C in Fasted State Simulated Intestinal Fluid (FaSSIF, pH = 8.0), Fed State Simulated Intestinal Fluid (FeSSIF, pH = 5.0), Simulated Gastric Fluid (SGF, pH = 1.0), a hydrochloric acid aqueous solution (pH = 1.0), an acetic acid-sodium acetate buffer system (pH = 4.0), a phosphate buffer system (pH = 6.8) and water. After 1 h/2 h/4 h/24 h, filtration was performed to obtain solutions, and actual concentrations of the samples in the solutions were measured through high-performance liquid chromatography (HPLC) (diluting the filtrates as needed). Crystal forms of the solids before and after the experiment were characterized through XRPD to check whether phase transition had occurred. Table 4 Comparison of solubility of crystal form A and crystal form B

- Average of Angles of Repose [1]: 57.2 °
- Angle of Repose ([1]; single determination): 56.3 ° and 58.0 °
- raw material particle size [2]: below 35 µm
- change in main purity ([3]; 40 °C/75% RH, 60 °C and 92.5% RH for 30 days): no significant change
- time the crystal form is stable (XRPD) ([3]; 60 °C, 92.5% RH, light and 45 °C/75% RH): at least 30 days
- Crystal Form after storage ([3]; At 40 °C/75% RH, hydrochloride): crystal form A
- main purity after storage ([3]; At 40 °C/75% RH, hydrochloride): 98.88 A%
- maximum single impurity after storage ([3]; At 40 °C/75% RH, hydrochloride): 0.35 A%
- Crystal Form after storage ([3]; At 60 °C, hydrochloride): crystal form A
- main purity after storage ([3]; At 60 °C, hydrochloride): 98.82 A%
- maximum single impurity after storage ([3]; At 60 °C, hydrochloride): maximum single impurity: 0.35 A%
- Crystal Form after storage ([3]; At 92.5% RH, hydrochloride): crystal form A
- main purity after storage ([3]; At 92.5% RH, hydrochloride): 98.86 A%
- maximum single impurity after storage ([3]; At 92.5% RH, hydrochloride): maximum single impurity: 0.35 A%
- Crystal Form after storage ([3]; In light, hydrochloride): crystal form A
- main purity after storage ([3]; In light, hydrochloride): 97.79 A%
- maximum single impurity after storage ([3]; In light, hydrochloride): maximum single impurity: 0.34 A%
- main purity ([3]; before storage, hydrochloride): 98.84 A%
- maximum single impurity ([3]; before storage, hydrochloride): 0.40 A%
- change in main purity ([3]; light for 30 days, hydrochloride): slightly decreased
- solubility at 24 h ([4]; acetone): 30 µg/mL
- solubility at 24 h ([4]; ethanol): 3470 µg/mL
- solubility ([4]; ethyl acetate, hydrochloride): 0.04 mg/mL
- vapor sorption weight gain ([5]; 24.3 °C and 90% RH): 0.14%
- hygroscopic weight gain (vapor sorption) ([5]; 25 °C/90% RH, hydrochloride): 0.14%
- hygroscopicity ([5]; DVS, 90% RH, hydrochloride): no or almost no hygroscopicity
- crystal form after the dynamic vapor sorption test (XRPD) ([5]; after DVS test, hydrochloride): not subjected to crystal transformation
- Adhesion Amount Per Unit Area [6]: 0.002 g/m^2
- Weight of API Adsorbed in Bag [6]: 0.1053 g
- crystal form of the solid ([7]; FaSSIF (pH = 8.0), 37 °C, 1 h, hydrochloride): A+free alkali
- crystal form of the solid ([7]; FaSSIF (pH = 8.0), 37 °C, 2 h, hydrochloride): A+free alkali
- crystal form of the solid ([7]; FaSSIF (pH = 8.0), 37 °C, 4 h, hydrochloride): A+free alkali
- crystal form of the solid ([7]; FaSSIF (pH = 8.0), 37 °C, 24 h, hydrochloride): A+free alkali
- solubility at 1 h ([7]; Fasted State Simulated Intestinal Fluid (FaSSIF), 37 °C, pH 8, fassif, FaSSIF (pH = 8.0), 1 h): 10 µg/mL
- solubility at 2 h ([7]; Fasted State Simulated Intestinal Fluid (FaSSIF), 37 °C, pH 8, fassif, FaSSIF (pH = 8.0), 2 h): 9 µg/mL
- solubility at 4 h ([7]; Fasted State Simulated Intestinal Fluid (FaSSIF), 37 °C, pH 8, fassif, FaSSIF (pH = 8.0), 4 h): 11 µg/mL
- solubility at 24 h ([7]; Fasted State Simulated Intestinal Fluid (FaSSIF), 37 °C, pH 8, fassif, FaSSIF (pH = 8.0), 24 h): 26 µg/mL
- solubility ([7]; FeSSIF (pH = 5.0), 37 °C, 4 h, hydrochloride): 2520 µg/mL
- solubility at 1 h ([7]; Fed State Simulated Intestinal Fluid (FeSSIF), 37 °C, pH 5, fessif, FeSSIF (pH = 5.0), 1 h): 1540 µg/mL
- solubility at 2 h ([7]; Fed State Simulated Intestinal Fluid (FeSSIF), 37 °C, pH 5, fessif, FeSSIF (pH = 5.0), 2 h): 2000 µg/mL
- solubility at 24 h ([7]; Fed State Simulated Intestinal Fluid (FeSSIF), 37 °C, pH 5, fessif, FeSSIF (pH = 5.0), 24 h): 2670 µg/mL
- solubility at 1 h ([7]; Simulated Gastric Fluid (SGF), 37 °C, pH 1, simulated gastric fluid, SGF (pH = 1.0), 1 h): 240 µg/mL
- solubility at 2 h ([7]; Simulated Gastric Fluid (SGF), 37 °C, pH 1, simulated gastric fluid, SGF (pH = 1.0), 2 h): 260 µg/mL
- solubility at 4 h ([7]; Simulated Gastric Fluid (SGF), 37 °C, pH 1, simulated gastric fluid, SGF (pH = 1.0), 4 h): 260 µg/mL
- solubility at 24 h ([7]; Simulated Gastric Fluid (SGF), 37 °C, pH 1, simulated gastric fluid, SGF (pH = 1.0), 24 h): 270 µg/mL
- solubility at 1 h ([7]; acetic acid-sodium acetate buffer, 37 °C, pH 4, aqueous buffer, acetic acid-sodium acetate buffer pH = 4.0, 37 °C, 1 h): 2490 µg/mL
- solubility at 2 h ([7]; acetic acid-sodium acetate buffer, 37 °C, pH 4, aqueous buffer, acetic acid-sodium acetate buffer pH = 4.0, 37 °C, 2 h): 2480 µg/mL
- solubility at 4 h ([7]; acetic acid-sodium acetate buffer, 37 °C, pH 4, aqueous buffer, acetic acid-sodium acetate buffer pH = 4.0, 37 °C, 4 h): 2740 µg/mL
- solubility at 24 h ([7]; acetic acid-sodium acetate buffer, 37 °C, pH 4, aqueous buffer, acetic acid-sodium acetate buffer pH = 4.0, 37 °C, 24 h): 2590 µg/mL
- solubility at 1 h ([7]; hydrochloric acid aqueous solution, 37 °C, pH 1, simulated gastric fluid, hydrochloric acid aqueous solution pH = 1.0, 37 °C, 1 h): 280 µg/mL
- solubility at 2 h ([7]; hydrochloric acid aqueous solution, 37 °C, pH 1, simulated gastric fluid, hydrochloric acid aqueous solution pH = 1.0, 37 °C, 2 h): 280 µg/mL
- solubility at 4 h ([7]; hydrochloric acid aqueous solution, 37 °C, pH 1, simulated gastric fluid, hydrochloric acid aqueous solution pH = 1.0, 37 °C, 4 h): 290 µg/mL
- solubility at 24 h ([7]; hydrochloric acid aqueous solution, 37 °C, pH 1, simulated gastric fluid, hydrochloric acid aqueous solution pH = 1.0, 37 °C, 24 h): 380 µg/mL
- crystal form of the solid ([7]; phosphate buffer pH = 6.8, 37 °C, 1 h): free alkali
- solubility ([7]; phosphate buffer pH = 6.8, 37 °C, 1 h, hydrochloride): 0.2 µg/mL
- crystal form of the solid ([7]; phosphate buffer pH = 6.8, 37 °C, 2 h): free alkali
- crystal form of the solid ([7]; phosphate buffer pH = 6.8, 37 °C, 4 h): free alkali
- crystal form of the solid ([7]; phosphate buffer pH = 6.8, 37 °C, 24 h): free alkali
- solubility ([7]; phosphate buffer pH = 6.8, 37 °C, 24 h, hydrochloride): 0.76 µg/mL
- solubility at 2 h ([7]; phosphate buffer, 37 °C, pH 6.8, aqueous buffer, phosphate buffer pH = 6.8, 37 °C, 2 h): 0.07 µg/mL
- solubility at 4 h ([7]; phosphate buffer, 37 °C, pH 6.8, aqueous buffer, phosphate buffer pH = 6.8, 37 °C, 4 h): 0.14 µg/mL
- solubility at 1 h ([7]; water, 37 °C, 1 h): 2080 µg/mL
- solubility at 2 h ([7]; water, 37 °C, 2 h): 2150 µg/mL
- solubility at 4 h ([7]; water, 37 °C, 4 h): 2140 µg/mL
- solubility at 24 h ([7]; water, 37 °C, 24 h): 2260 µg/mL
Compound: CCc1nc(-c2ccc(-c3ccc(CCC(N)(CO)CO)cc3)cc2)co1.Cl [crystal form A, 2-amino-2-{2-(4'-(2-ethyloxazol-4-yl)-[1,1'-biphenyl]-4-yl)ethyl}-1,3-propylene glycol hydrochloride]
